{"source": "patent US6699459B2", "about": "“Methods of treating lung inflammation” (The Board of Regents of the University of Texas System, priority 2001, dated 2004)", "key": {"RANTES": {"system": "RANTES", "experiment": "RSV-induced RANTES secretion in A549 cells (ELISA)", "format": "cell-based, human", "conditions": "A549 cells", "protocol": "Cell culture and infection of epithelial cells with RSV. A549, human alveolar type II-like epithelial cells (ATCC, Manassas, Va.), were maintained in F12K medium containing 10% (v/v) fetal bovine serum (FBS), 10 mM glutamine, 100 IU/ml penicillin and 100 μg/ml streptomycin. Small alveolar epithelial cells (SAE) were obtained from Clonetics (San Diego, Calif.) and grown according to the company instructions. Cell monolayers were infected with RSV at multiplicity of infection (MOI) of 1 (unless otherwise stated), as described (17). An equivalent amount of a 20% sucrose solution was added to uninfected A549 cells, as a control. For the antioxidant experiments, cells were pretreated with the antioxidants for one hour and then infected in the presence of the antioxidants. Since BHA was diluted in ethanol, equal amounts of ethanol were added to untreated cells, as a control. Total number of cells, cell viability and viral replication, following antioxidant treatment, were measured by trypan blue exclusion and by plaque assay, respectively. RANTES ELISA. Immunoreactive RANTES was quantitated by a double antibody ELISA kit (DuoSet, R&D Systems, Minneapolis, Minn.) following the manufacturer's protocol."}, "STAT-3": {"system": "STAT-3", "experiment": "Western blot of phosphorylated and total nuclear STAT-3 in RSV-infected A549 cells", "format": "cell-based, human", "conditions": "nuclear proteins, 400 μM", "protocol": "Western Immunoblot. Nuclear proteins were prepared as previously described, fractionated by SDS-PAGE and transferred to PVDF membrane (20). Membranes were blocked with 5% albumin in TBS-Tween and incubated overnight with antibody recognizing the tyrosine phosphorylated form of STAT-1 and STAT-3 (Santa Cruz Biotech, Santa Cruz, Calif.). Membranes were stripped and reprobed with antibodies to STAT-1 and STAT-3 (Santa Cruz Biotech, Santa Cruz, Calif.). For secondary detection, a horseradish-coupled anti-rabbit or anti-mouse antibody was used (Santa Cruz Biotech, Santa Cruz, Calif.) in the enhanced chemiluminescence assay (Amersham Life Science, Arlington Heights, Ill.)."}, "RANTES mRNA": {"system": "RANTES mRNA", "experiment": "Northern blot of RANTES mRNA in RSV-infected A549 cells", "format": "cell-based, human", "conditions": "400 μM", "protocol": "Cell culture and infection of epithelial cells with RSV. A549, human alveolar type II-like epithelial cells (ATCC, Manassas, Va.), were maintained in F12K medium containing 10% (v/v) fetal bovine serum (FBS), 10 mM glutamine, 100 IU/ml penicillin and 100 μg/ml streptomycin. Small alveolar epithelial cells (SAE) were obtained from Clonetics (San Diego, Calif.) and grown according to the company instructions. Cell monolayers were infected with RSV at multiplicity of infection (MOI) of 1 (unless otherwise stated), as described (17). An equivalent amount of a 20% sucrose solution was added to uninfected A549 cells, as a control. For the antioxidant experiments, cells were pretreated with the antioxidants for one hour and then infected in the presence of the antioxidants. Since BHA was diluted in ethanol, equal amounts of ethanol were added to untreated cells, as a control. Total number of cells, cell viability and viral replication, following antioxidant treatment, were measured by trypan blue exclusion and by plaque assay, respectively. Northern Blot. Total RNA was extracted from control and infected A549 cells by the acid guanidium thiocyanate-phenol chloroform method (18). Twenty micrograms of RNA were fractionated on a 1.2% agarose-formaldehyde gel, transferred to nylon membranes and hybridized to a radiolabeled RANTES, IRF-1, -3 and -7 cDNAs, as previously described (19). […]"}, "human RANTES promoter": {"system": "human RANTES promoter", "experiment": "RANTES promoter luciferase reporter in RSV-infected A549 cells", "format": "cell-based", "conditions": "RSV 24 hours, 400 μM", "source_text": "Plasmid construction and cell transfection. A fragment of the human RANTES promoter spanning from −220 to +55 nucleotides (nt), relative to the mRNA start site designated +1 was cloned into the luciferase reporter gene vector pGL2 (Promega, Madison, Wis.) and defined as pGL2-220. Site mutations of the RANTES ISRE in the context of pGL2-220 plasmid were introduced by PCR using the following upstream and downstream mutagenic primers (mutations in lower cases): […]\nLogarithmically growing A549 cells were transfected in triplicate in 60 mm petri dishes by DEAE-Dextran, as previously described (20). Cells were incubated in 2 ml of HEPES buffered Dulbecco's modified Eagle's medium (DMEM) (10 mM Hepes, pH 7.4) containing 20 μl of 60 mg/ml DEAE-Dextran (Amersham Pharmacia Biotec, Arlington Heights, Ill.) premixed with 6 μg of RANTES-pGL2 plasmids and 1 μg cytomegalovirus (CMV)-β galactosidase internal control plasmid. After 3 hours, media was removed and 0.5 ml of 10% (v/v) DMSO in phosphate buffered saline (PBS) was added to the cells for 2 minutes. Cells were washed with PBS and cultured overnight in 10% FBS/DMEM. The next morning, cells were infected with RSV and at 24 hours post-infection cells were lysed to measure independently luciferase and β-galactosidase reporter activity, as previously described (20). Luciferase was normalized to the internal control β-galactosidase activity. […]"}, "IRF-1 mRNA": {"system": "IRF-1 mRNA", "experiment": "Northern blot of IRF-1 mRNA in RSV-infected A549 cells", "format": "cell-based, human", "conditions": "400 μM", "protocol": "Northern Blot. Total RNA was extracted from control and infected A549 cells by the acid guanidium thiocyanate-phenol chloroform method (18). Twenty micrograms of RNA were fractionated on a 1.2% agarose-formaldehyde gel, transferred to nylon membranes and hybridized to a radiolabeled RANTES, IRF-1, -3 and -7 cDNAs, as previously described (19). Hybridization temperature for all probes was 55° C. After washing, membranes were exposed for autoradiography using Kodak XAR film at −70° C. using intensifying screens. After exposure, membranes were stripped and rehybridized with a β-actin probe."}}}
{"smiles": "COc1ccc(O)c(C(C)(C)C)c1", "note": "[BHA, butylated hydroxyanisol]", "values": [{"measurement": "effectiveness in reducing RSV-induced RANTES secretion, compared among the antioxidants", "setting": "RANTES", "value": "most effective"}, {"measurement": "RSV-induced RANTES production", "setting": "RANTES; 400 μM, 24 hours, ELISA", "value": "significantly block"}, {"measurement": "RSV-induced STAT-3 nuclear translocation", "setting": "STAT-3", "value": "completely inhibited"}, {"measurement": "RSV-induced STAT-3 phosphorylation", "setting": "STAT-3", "value": "completely abolished"}, {"measurement": "RSV-induced RANTES mRNA induction", "setting": "RANTES mRNA; 6 and 12 hours post-infection", "value": "completely inhibited"}, {"measurement": "RSV-induced RANTES mRNA induction", "setting": "RANTES mRNA; 24 hours post-infection", "value": "greatly reduced"}, {"measurement": "RSV-induced luciferase activity (RANTES promoter)", "setting": "human RANTES promoter", "value": "almost completely abolished"}, {"measurement": "IRF-1 mRNA accumulation", "setting": "IRF-1 mRNA; 6 and 12 hours post-infection", "value": "almost completely blocked"}, {"measurement": "IRF-1 mRNA accumulation", "setting": "IRF-1 mRNA; 24 hours post-infection", "value": "significantly reduced"}]}
